This is an account of results in patent US20240254082A1, “Substituted Isoindoline-1, 3-diketone PDE4 Inhibitor and Pharmaceutical Application Thereof” (SUZHOU INTRAGRAND PHARMA CO., LTD, priority 2021, published 2024).

Usually IC50 stands for the point on the concentration scale where inhibition reaches its midpoint. Low values mean higher potency, high ones lower potency. One may read the inhibition as the drop in the measured response relative to a control, in per cent.

What all share (type): biochemical
One assay concerns the target PDE4D3 (Homo sapiens, UniProt Q08499). The assay can be described thus: Inhibition assay of PDE4D3 enzyme (TR-FRET kit). The procedure: 2. Inhibition assay of PDE4D3 enzyme:
(§1) Materials and Instruments:
FAM substrate: A stock solution of 20 μM FAM substrate was diluted to 200 nM with PDE assay buffer. 12.5 μL of the diluted substrate was added to each reaction well.
(§2) 5 μL of the compound stock solution was added to 45 μL of DMSO to prepare a 1 mM diluent. 5 μL of the 1 mM diluent was added to 45 μL of PDE assay buffer to prepare a gradient dilution starting point. Then, according to the method of adding 5 μL of the previous concentration solution to 15 μL of PDE assay buffer, gradient dilution was carried out for 9 times to prepare compound working solutions with 10 concentrations. The working solutions were added to compound wells at 2.5 μL/well.
PDE4D3: 0.054 μL of a PDE4D3 recombinase stock solution was added to 1500 μL of PDE buffer, and the mixture was added to all compound wells and positive control wells at 10 μL/well. 10 μL of PDE assay buffer was added to substrate control wells.
Binding solution: 3750 μL of binding buffer A and 3750 μL of binding buffer B were mixed well. Then, 150 μL of a binder was added into the mixture and mixed well. 7.5 μL of a Tb donor was added and mixed well. The obtained mixture was added to all wells at 50 μL/well.
S520=Read value of sample 520 nm
S490=Read value of sample 490 nm
Tb520=Read value of Tb only 520 nm
Tb490=Read value of Tb only 490 nm
FRETp=Positive control FRET
FRETsub=Substrate control FRET.
In general terms: In TR-FRET formats the signal depends on donor and acceptor labels being close together.

The target in another assay is T1, PDE4A1 (Homo sapiens, UniProt P27815).
T1 construct: purchased BPS 60340
The assay can be described thus: Inhibition assay of PDE4A1 enzyme (FP kit). The procedure:
3. Inhibition assay of PDE4A1 enzyme:
as §1
(§3) FAM substrate: 25 μL of a FAM substrate stock solution was added into 2500 μL of PDE assay buffer. 25 μL of the diluted substrate was added to each reaction well.
(§4) 5 μL of the compound stock solution was added to 45 μL of DMSO to prepare a 1 mM diluent. 5 μL of the 1 mM diluent was added to 45 μL of PDE assay buffer to prepare a gradient dilution starting point. Then, according to the method of adding 5 μL of the previous concentration solution to 15 μL of PDE assay buffer, gradient dilution was carried out for 9 times to prepare compound working solutions with 10 concentrations. The working solutions were added to compound wells at 5 μL/well.
PDE4A1: First, a PDE4A1 stock solution was diluted by 100 times to a concentration of 4.9 ng/μL, 1.8 μL of the diluent was added to 2200 μL of PDE assay buffer, and the mixture was added to all compound wells and positive control wells at 20 μL/well. 20 μL of PDE assay buffer was added to substrate control wells.
Binding solution: 95 μL of binding buffer was added into 9.5 mL of binder diluent, and then mixed well. The obtained mixture was added to all wells at 100 μL/well.
(§5) FPsub=Substrate control FP.

In another assay the target is T2, PDE4B2 (Homo sapiens, UniProt Q07343).
T2 construct: purchased BPS 60343
Kind of assay: Inhibition assay of PDE4B2 enzyme (FP kit). The procedure:
4. Inhibition assay of PDE4B2 enzyme:
as §1, §3, §4
PDE4B2: First, a PDE4B2 stock solution was diluted by 100 times to a concentration of 5.2 ng/μL, 3.2 μL of the diluent was added to 2200 μL of PDE assay buffer, and the mixture was added to all compound wells and positive control wells at 20 μL/well. 20 μL of PDE assay buffer was added to substrate control wells.
Binding solution: 95 μL of binder was added into 9.5 mL of binder diluent, and then mixed well. The obtained mixture was added to all wells at 100 μL/well.
as §5

Another assay addresses T3, PDE4C1 (Homo sapiens, UniProt Q08493).
T3 construct: purchased BPS 60384
Kind of assay: Inhibition assay of PDE4C1 enzyme (FP kit). How it is done: 5. Inhibition assay of PDE4C1 enzyme:
as §1
FAM substrate: 12.5 μL of a FAM substrate stock solution was added into 1250 μL of PDE assay buffer. 12.5 μL of the diluted substrate was added to each reaction well.
as §2
PDE4C1: First, a PDE4C1 stock solution was diluted by 100 times to a concentration of 3.2 ng/μL, 13.75 μL of the diluent was added to 1100 μL of PDE assay buffer, and the mixture was added to all compound wells and positive control wells at 10 μL/well. 10 μL of PDE assay buffer was added to substrate control wells.
Binding solution: 50 μL of binder was added into 5 mL of binder diluent, and then mixed well. The obtained mixture was added to all wells at 50 μL/well.
as §5

A further assay deals with PDE1C (Homo sapiens, UniProt Q14123). Kind of assay: Selective inhibitory activity assay, PDE1C. The note with it: read-out: Inhibition rate (%) of PDE1C. The procedure: (§6) 7. Selective inhibitory activity assay for PDE1, 2, 3, 5, 7, 10 and 11 enzymes
(§7) The selective specificity of compounds for PDE4 was assessed by assaying single concentrations of the compounds. For example, PDE1a enzyme, PDElc enzyme, PDE2a enzyme, PDE3a enzyme, PDE3b enzyme, PDE5a1 enzyme, PDE7a enzyme, PDE7b enzyme, PDE10a1 enzyme and PDE11a4 enzyme were tested. The selective inhibitory effects of different compounds on the enzymatic activities of PDEIC, PDE2A, PDE3B, PDE5A1, PDE7A, and PDE10A1 at concentrations of 10 μM and 1 μM, respectively, are shown in the table below: […]

A further assay concerns the target PDE2A (Homo sapiens, UniProt O00408). The assay can be described thus: Selective inhibitory activity assay, PDE2A. The note with it: read-out: Inhibition rate (%) of PDE2A. The procedure:
as §6, §7

For the next assay, the target named is PDE3B (Homo sapiens, UniProt Q13370). The assay can be described thus: Selective inhibitory activity assay, PDE3B. The conditions noted are these: read-out: Inhibition rate (%) of PDE3B. How it is done:
as §6, §7

For the next assay, the target named is PDE5A1 (Homo sapiens, UniProt O76074). The assay can be described thus: Selective inhibitory activity assay, PDE5A1. The note with it: read-out: Inhibition rate (%) of PDE5A1. The procedure: as §6, §7
Another assay addresses PDE7A (Homo sapiens, UniProt Q13946). Kind of assay: Selective inhibitory activity assay, PDE7A. The note with it: read-out: Inhibition rate (%) of PDE7A. How it is done:
as §6, §7

For the next assay, the target named is PDE10A1 (Homo sapiens, UniProt Q9Y233). The assay can be described thus: Selective inhibitory activity assay, PDE10A1. The note with it: read-out: Inhibition rate (%) of PDE10A1. The procedure:
as §6, §7

Each structure is given as a SMILES string.

PDE3B, sequence (Q13370 whole entry, species assumed): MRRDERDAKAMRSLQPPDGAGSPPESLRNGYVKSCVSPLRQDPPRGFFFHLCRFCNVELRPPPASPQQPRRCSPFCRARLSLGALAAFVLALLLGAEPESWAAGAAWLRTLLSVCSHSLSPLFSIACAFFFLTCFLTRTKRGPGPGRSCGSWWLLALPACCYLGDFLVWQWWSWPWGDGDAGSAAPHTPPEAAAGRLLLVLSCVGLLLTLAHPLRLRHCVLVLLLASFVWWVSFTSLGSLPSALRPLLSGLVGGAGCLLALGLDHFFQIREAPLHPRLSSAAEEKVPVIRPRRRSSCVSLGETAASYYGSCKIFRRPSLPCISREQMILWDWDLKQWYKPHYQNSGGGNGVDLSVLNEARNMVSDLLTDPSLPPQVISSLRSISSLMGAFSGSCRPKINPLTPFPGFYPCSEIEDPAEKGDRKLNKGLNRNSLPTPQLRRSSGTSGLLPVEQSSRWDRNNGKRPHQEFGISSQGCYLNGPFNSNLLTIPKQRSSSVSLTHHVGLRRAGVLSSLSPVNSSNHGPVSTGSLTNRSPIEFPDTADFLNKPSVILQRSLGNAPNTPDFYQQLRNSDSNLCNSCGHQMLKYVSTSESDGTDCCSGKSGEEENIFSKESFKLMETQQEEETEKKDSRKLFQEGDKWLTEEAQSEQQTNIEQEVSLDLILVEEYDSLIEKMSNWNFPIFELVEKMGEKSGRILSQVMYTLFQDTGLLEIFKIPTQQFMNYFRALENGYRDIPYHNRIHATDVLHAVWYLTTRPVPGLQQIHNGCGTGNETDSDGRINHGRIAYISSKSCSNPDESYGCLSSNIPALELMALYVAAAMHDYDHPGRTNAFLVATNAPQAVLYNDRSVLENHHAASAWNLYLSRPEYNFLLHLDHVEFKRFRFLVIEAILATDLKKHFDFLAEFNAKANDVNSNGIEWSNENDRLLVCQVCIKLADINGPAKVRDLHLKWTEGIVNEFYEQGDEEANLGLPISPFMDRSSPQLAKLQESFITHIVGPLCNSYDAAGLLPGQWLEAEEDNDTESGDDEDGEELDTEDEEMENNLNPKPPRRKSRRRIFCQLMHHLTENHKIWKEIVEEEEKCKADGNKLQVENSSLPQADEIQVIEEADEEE
T1 sequence (P27815 1-647 isoform P27815-4): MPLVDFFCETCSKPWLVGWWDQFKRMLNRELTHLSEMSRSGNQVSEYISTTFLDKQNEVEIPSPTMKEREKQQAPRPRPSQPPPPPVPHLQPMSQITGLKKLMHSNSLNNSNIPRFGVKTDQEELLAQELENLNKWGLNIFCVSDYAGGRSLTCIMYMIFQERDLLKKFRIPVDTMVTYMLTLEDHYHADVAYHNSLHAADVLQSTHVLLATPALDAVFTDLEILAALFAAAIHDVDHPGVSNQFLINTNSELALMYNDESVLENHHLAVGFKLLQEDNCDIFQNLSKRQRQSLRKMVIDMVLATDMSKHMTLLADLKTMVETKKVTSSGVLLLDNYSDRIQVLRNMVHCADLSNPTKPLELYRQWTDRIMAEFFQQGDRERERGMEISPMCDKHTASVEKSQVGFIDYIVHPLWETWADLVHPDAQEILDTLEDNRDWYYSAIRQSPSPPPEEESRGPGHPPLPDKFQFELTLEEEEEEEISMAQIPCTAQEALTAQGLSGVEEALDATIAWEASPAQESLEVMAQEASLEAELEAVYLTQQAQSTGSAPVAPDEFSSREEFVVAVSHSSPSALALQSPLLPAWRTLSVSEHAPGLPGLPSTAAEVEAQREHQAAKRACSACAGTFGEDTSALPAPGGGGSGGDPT
PDE10A1, sequence (Q9Y233 1-779 isoform Q9Y233-1, species assumed): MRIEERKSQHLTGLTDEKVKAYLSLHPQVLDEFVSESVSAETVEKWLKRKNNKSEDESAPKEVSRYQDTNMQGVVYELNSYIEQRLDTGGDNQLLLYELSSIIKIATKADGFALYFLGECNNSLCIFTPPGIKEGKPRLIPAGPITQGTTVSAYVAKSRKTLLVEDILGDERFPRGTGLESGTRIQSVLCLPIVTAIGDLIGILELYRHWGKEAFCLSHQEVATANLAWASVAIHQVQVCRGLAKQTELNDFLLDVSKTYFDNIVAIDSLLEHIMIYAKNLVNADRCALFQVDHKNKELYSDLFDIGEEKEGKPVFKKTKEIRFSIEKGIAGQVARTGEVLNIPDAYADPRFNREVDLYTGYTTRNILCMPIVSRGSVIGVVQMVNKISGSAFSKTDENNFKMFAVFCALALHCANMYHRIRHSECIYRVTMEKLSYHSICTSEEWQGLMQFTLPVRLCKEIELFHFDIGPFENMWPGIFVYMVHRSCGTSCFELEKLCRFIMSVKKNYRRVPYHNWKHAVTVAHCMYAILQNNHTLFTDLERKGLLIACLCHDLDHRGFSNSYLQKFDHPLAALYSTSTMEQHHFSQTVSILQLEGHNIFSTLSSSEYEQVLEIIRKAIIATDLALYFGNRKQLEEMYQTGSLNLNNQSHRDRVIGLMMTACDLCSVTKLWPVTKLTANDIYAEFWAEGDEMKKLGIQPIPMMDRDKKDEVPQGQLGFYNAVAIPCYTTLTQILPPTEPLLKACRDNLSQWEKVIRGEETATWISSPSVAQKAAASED
PDE1C, sequence (Q14123 whole entry, species assumed): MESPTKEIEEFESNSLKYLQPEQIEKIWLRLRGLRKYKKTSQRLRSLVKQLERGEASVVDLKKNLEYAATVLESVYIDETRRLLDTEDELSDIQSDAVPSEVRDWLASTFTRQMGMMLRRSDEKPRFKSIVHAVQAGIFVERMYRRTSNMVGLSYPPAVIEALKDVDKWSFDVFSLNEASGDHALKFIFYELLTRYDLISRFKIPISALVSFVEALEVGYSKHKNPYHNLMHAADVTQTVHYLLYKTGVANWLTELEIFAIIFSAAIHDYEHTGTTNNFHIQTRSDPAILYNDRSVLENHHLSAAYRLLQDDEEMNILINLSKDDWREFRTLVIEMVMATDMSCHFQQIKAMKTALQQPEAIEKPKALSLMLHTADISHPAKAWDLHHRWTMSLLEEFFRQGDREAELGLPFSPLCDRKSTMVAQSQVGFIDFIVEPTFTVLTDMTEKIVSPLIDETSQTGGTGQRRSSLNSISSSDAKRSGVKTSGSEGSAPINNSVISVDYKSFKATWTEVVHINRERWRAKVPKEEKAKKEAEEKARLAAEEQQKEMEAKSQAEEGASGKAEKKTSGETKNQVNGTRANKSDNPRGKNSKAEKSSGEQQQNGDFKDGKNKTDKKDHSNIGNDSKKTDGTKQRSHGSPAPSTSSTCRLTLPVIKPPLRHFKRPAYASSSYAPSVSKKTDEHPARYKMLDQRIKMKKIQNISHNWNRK
PDE4D3, sequence (Q08499 1-673 isoform Q08499-2): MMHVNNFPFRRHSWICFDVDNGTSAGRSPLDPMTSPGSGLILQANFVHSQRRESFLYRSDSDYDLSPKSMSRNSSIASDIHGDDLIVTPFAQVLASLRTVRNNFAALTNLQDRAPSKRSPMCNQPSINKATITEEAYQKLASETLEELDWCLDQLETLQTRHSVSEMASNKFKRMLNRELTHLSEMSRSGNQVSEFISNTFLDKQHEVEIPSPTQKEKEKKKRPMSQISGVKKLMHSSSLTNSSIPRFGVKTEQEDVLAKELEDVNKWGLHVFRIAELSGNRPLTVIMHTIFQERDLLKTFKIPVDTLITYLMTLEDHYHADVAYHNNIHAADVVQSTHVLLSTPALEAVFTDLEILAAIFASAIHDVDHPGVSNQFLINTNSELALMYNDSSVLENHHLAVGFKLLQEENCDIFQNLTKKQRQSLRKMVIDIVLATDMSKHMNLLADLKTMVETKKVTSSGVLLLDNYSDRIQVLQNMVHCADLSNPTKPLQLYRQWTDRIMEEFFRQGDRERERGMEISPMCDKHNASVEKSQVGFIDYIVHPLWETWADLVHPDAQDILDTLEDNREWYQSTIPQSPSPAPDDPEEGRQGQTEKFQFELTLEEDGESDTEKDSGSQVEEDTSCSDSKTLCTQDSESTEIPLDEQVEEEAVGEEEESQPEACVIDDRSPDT
PDE7A, sequence (Q13946 whole entry, species assumed): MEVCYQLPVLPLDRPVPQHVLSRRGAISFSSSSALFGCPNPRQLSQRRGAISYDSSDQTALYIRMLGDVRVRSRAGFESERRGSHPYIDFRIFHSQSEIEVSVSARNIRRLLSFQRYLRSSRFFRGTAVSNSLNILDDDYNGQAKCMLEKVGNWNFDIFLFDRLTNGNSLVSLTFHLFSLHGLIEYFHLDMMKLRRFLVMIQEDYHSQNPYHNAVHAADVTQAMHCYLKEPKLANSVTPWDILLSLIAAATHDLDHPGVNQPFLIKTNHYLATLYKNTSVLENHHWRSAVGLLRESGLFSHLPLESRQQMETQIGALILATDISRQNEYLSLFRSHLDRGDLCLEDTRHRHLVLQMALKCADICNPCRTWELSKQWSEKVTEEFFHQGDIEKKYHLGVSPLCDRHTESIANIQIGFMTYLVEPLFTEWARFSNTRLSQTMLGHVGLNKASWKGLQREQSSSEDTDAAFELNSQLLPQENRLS
T2 sequence (Q07343 1-564 isoform Q07343-2): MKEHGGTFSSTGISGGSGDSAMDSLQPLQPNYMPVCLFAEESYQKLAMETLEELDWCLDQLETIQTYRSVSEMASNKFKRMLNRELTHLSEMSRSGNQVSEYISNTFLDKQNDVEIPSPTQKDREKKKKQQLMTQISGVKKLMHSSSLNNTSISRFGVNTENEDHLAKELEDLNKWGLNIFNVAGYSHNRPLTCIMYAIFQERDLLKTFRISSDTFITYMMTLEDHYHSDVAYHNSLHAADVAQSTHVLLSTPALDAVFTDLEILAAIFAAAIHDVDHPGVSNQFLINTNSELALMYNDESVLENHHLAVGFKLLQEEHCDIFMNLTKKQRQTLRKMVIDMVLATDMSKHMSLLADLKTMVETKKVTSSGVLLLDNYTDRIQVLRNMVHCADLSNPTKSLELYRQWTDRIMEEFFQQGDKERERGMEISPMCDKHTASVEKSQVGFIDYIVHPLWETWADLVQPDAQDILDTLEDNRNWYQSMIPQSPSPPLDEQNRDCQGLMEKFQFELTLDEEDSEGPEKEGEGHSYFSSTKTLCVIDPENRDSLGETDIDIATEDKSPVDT

As to `CCCCC(O)c1ccc(NC(C)=O)c2c1C(=O)N([C@H](CS(C)(=O)=O)c1ccc(OC)c(OCC)c1)C2=O` (mixture of isomers) [Example 55], the IC50 against PDE4D3 was under 0.005 µM; against PDE4A1, under 0.1 µM; on PDE4B2, under 0.1 µM; against PDE4C1, under 0.2 µM.

As for `CCCCCc1ccc(NC(=O)CCCl)c2c1C(=O)N([C@H](CS(C)(=O)=O)c1ccc(OC)c(OCC)c1)C2=O` [Example 24], on PDE4D3, the IC50 is 0.01 to 0.05 µM. For the same molecule, the inhibition at 1 µM turned out to be 3.89% at PDE1C; 0% on PDE2A; 0% at PDE3B; 0% at PDE5A1; 0% on PDE7A; 6.04% on PDE10A1. The inhibition at 10 µM on PDE1C is 34.5%; at PDE2A, 7.79%; at PDE3B it was -0.81%; at PDE5A1 it was 11.5%; on PDE7A it was 4.15%; at PDE10A1 it was 11.4%.

At PDE4D3, `CCCCCc1ccc(NC(=O)CCl)c2c1C(=O)N([C@H](CS(C)(=O)=O)c1ccc(OC)c(OCC)c1)C2=O` [Example 25, (S)-2-[1-(3-ethoxy-4-methoxyphenyl)-2-alkylsulfonylethyl]-4-(chloroacetamido)-7-pentyl isoindoline-1,3-diketone] came in with an IC50 of 0.01 to 0.05 µM. The inhibition at 1 µM at PDE1C was 3.89%; at PDE2A, 20.4%; on PDE3B, 0%; on PDE5A1, 0%; on PDE7A, 4.98%; on PDE10A1, 3.02%. The inhibition at 10 µM amounted to 33.8% at PDE1C; 13.4% on PDE2A; 0.19% at PDE3B; 8.17% at PDE5A1; 24.6% on PDE7A; 11.1% at PDE10A1.

With `CCCCc1ccc(NC(=O)CCCCl)c2c1C(=O)N([C@H](CS(C)(=O)=O)c1ccc(OC)c(OCC)c1)C2=O` [Example 27, (S)-2-[1-(3-ethoxy-4-methoxyphenyl)-2-alkylsulfonylethyl]-4-(γ-chlorobutyramido)-7-butyl isoindoline-1,3-diketone], on PDE4D3, the IC50 lay within 0.01 to 0.05 µM. The inhibition at 1 µM at PDE1C was 12.1%; at PDE2A it was 0%; on PDE3B, 0%; at PDE5A1 it was 0%; on PDE7A, 2.21%; on PDE10A1, 11.9%. The inhibition at 10 µM on PDE1C was 67.5%; at PDE2A, 8.1%; on PDE3B, -1.31%; at PDE5A1, 8.14%; at PDE7A it was 14.7%; on PDE10A1, 1.01%.

On to `CCCCCc1ccc(NC(=O)CF)c2c1C(=O)N([C@H](CS(C)(=O)=O)c1ccc(OC)c(OCC)c1)C2=O` [Example 28, (S)-2-[1-(3-ethoxy-4-methoxyphenyl)-2-alkylsulfonylethyl]-4-fluoroacetamido-7-pentyl isoindoline-1,3-diketone], for which, at PDE4D3, the IC50 was 0.005 to 0.01 µM. The inhibition at 1 µM at PDE1C came to 1.46%; on PDE2A, 0%; on PDE3B, 3.69%; on PDE5A1, 0%; on PDE7A, 0.55%; at PDE10A1, 29.1%. The inhibition at 10 µM came to 24.8% at PDE1C; 5.83% at PDE2A; 6.44% on PDE3B; 4.16% on PDE5A1; 10.5% at PDE7A; 0.04% at PDE10A1.

In the case of `C=CC(=O)Nc1ccc(CCCCC)c2c1C(=O)N([C@H](CS(C)(=O)=O)c1ccc(OC)c(OCC)c1)C2=O` [Example 29, (S)-2-[1-(3-ethoxy-4-methoxyphenyl)-2-alkylsulfonylethyl]-4-acrylamido-7-pentyl isoindoline-1,3-diketone], the IC50 against PDE4D3 lay within 0.005 to 0.01 µM. For the same molecule, the inhibition at 1 µM came to 4.13% at PDE1C; 7.19% on PDE2A; 0% at PDE3B; 5.72% at PDE5A1; 17.4% on PDE7A; 0% at PDE10A1. Moreover, the inhibition at 10 µM on PDE1C is 26%; at PDE2A, 15.8%; on PDE3B, -1.94%; at PDE5A1, 13%; on PDE7A, 19.9%; at PDE10A1, 16.1%.

For `[2H]C([2H])(CCCC)c1ccc(NC(C)=O)c2c1C(=O)N([C@H](CS(C)(=O)=O)c1ccc(OC)c(OCC)c1)C2=O` [Example 32], the IC50 at PDE4D3 was under 0.005 µM; against PDE4A1, under 0.1 µM; against PDE4B2, under 0.1 µM; at PDE4C1, under 0.2 µM.

Turning to `[2H]c1c([2H])c(NC(C)=O)c2c(c1CCCCC)C(=O)N([C@H](CS(C)(=O)=O)c1ccc(OC)c(OCC)c1)C2=O` [Example 33], the IC50 against PDE4D3 is under 0.005 µM; against PDE4A1, under 0.1 µM; at PDE4B2, under 0.1 µM; at PDE4C1, under 0.2 µM.

With `CCCCC(=O)c1ccc(NC(C)=O)c2c1C(=O)N([C@H](CS(C)(=O)=O)c1ccc(OC)c(OCC)c1)C2=O` [Example 56], the IC50 on PDE4D3 is 0.01 to 0.05 µM; against PDE4A1, under 0.1 µM; on PDE4B2, under 0.1 µM; against PDE4C1 it was 0.2 to 0.5 µM.
